Consider 39 molecules from ChEMBL document CHEMBL1128746, “Aminoalkylindoles: structure-activity relationships of novel cannabinoid mimetics” (J Med Chem, 1995).

In general, IC50 refers to the midpoint of a concentration-inhibition curve. The low end stands for greater potency in that assay, the high end for weaker potency in that assay. As usually defined, the inhibition is the drop in the measured response relative to a control, in per cent.

Each structure is given as a SMILES string.

For one assay, the species on record is Mus musculus. In words: Concentration required to inhibit electrically induced contractions in isolated mouse vas deferens preparation in vitro. The assay is classed as functional. To be noted: Mus musculus.
For assay [1], the target named is Cannabinoid receptor 1 (Rattus norvegicus) (UniProt P20272). Put plainly: […] [3H]WIN-55212 binding to Cannabinoid receptor 1 in rat cerebellum membranes. Type of assay: cell membranes. As to conditions: Membrane, concentration not given here.
Sequence of Cannabinoid receptor 1 (Rattus norvegicus) (P20272 whole entry): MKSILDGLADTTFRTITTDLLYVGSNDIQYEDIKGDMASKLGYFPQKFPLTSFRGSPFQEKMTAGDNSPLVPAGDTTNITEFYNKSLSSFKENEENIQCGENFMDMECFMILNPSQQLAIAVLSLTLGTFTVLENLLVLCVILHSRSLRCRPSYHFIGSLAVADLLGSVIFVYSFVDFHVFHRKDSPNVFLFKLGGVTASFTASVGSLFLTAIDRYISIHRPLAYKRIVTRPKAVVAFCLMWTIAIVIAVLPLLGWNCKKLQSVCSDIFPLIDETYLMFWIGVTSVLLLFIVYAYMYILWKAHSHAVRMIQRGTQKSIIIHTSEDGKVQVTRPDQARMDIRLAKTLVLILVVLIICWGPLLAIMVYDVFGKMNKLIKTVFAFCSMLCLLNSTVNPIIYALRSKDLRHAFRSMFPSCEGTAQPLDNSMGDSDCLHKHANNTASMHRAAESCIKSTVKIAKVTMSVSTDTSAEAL

`O=C(c1cccc2c1CCCC2)c1cn(CCN2CCOCC2)c2ccccc12`: inhibition in the assay filed under Mus musculus was half-maximal at 0.006 µM (IC50). Also, the inhibition in assay [1] is 97%.
The corresponding values for `Cc1c(C(=O)c2cccc3cc4ccccc4cc23)c2ccccc2n1CCN1CCOCC1` are 0.057 µM and 74%.
`Cc1c(C(=O)c2cnc3ccccc3c2)c2ccccc2n1CCN1CCOCC1` came in with an IC50 in the assay filed under Mus musculus of 0.571 µM. Besides, the inhibition in assay [1] was 28%.
The corresponding values for `Cc1c(C(=O)c2ccc(O)cc2)c2ccccc2n1CCN1CCOCC1` are more than 10 µM and 15%.
The corresponding values for `Cc1cc(C)cc(C(=O)c2c(C)n(CCN3CCOCC3)c3ccccc23)c1` are 0.39 µM and 42%.
The molecule `COc1cccc(C(=O)c2c(C)n(CCN3CCOCC3)c3ccccc23)c1` had an IC50 in the assay listed under Mus musculus of 0.206 µM. For the same molecule, the inhibition in assay [1] was 76%.
On the same counts, the results for `Cc1c(C(=O)c2ccccc2Cl)c2ccccc2n1CCN1CCOCC1` are 0.092 µM and 59%.
`C[N+]1(CCn2cc(C(=O)c3cccc4ccccc34)c3ccccc32)CCOCC1` had an IC50 in the assay listed under Mus musculus of 0.18 µM. Further, the inhibition in assay [1] was determined as 14%.
The corresponding values for `Cc1c(C(=O)c2ccc3ccc4cccc5ccc2c3c45)c2ccccc2n1CCN1CCOCC1` are 0.042 µM and 89%.
In the assay listed under Mus musculus, `N#Cc1ccc(C(=O)c2cn(CCN3CCOCC3)c3ccccc23)c2ccccc12` returned an IC50 of 0.0048 µM. Further, the inhibition in assay [1] was found to be 96%.
The corresponding values for `COc1ccc(C(=O)c2cn(C(C)CN3CCOCC3)c3ccccc23)cc1` (centres undefined) are 3.67 µM and 35%.
The corresponding values for `Cc1c(C(=O)c2cc3ccccc3c3ccccc23)c2ccccc2n1CCN1CCOCC1` are 0.175 µM and 75%.
On the same counts, the results for `COc1ccc(C(=O)c2c(C)n(C(C)CN3CCOCC3)c3ccccc23)cc1` (centres undefined) are 1.36 µM and 34%.
In the case of `COc1ccc(C(=O)c2cn(CCN3CCOCC3)c3cc(Br)ccc23)cc1`, in the assay filed under Mus musculus, it took 0.017 µM to reach half-maximal inhibition (IC50). The inhibition in assay [1] amounted to 21%.
On the same counts, the results for `COc1ccc(C(=O)c2c(C)n(CCN3CCOCC3)c3cccc(C)c23)cc1` are more than 10 µM and 42%.
On the same counts, the results for `Cc1c(C(=O)c2ccc(-c3ccccc3)cc2)c2ccccc2n1CCN1CCOCC1` are 10 µM and 9%.
On the same counts, the results for `Cc1[nH]c2ccccc2c1C(=O)c1cccc2ccccc12` are more than 10 µM and 3%.
With `COc1ccc(C(=O)c2c(Cl)n(CCN3CCOCC3)c3ccccc23)cc1`, the midpoint of inhibition in the assay filed under Mus musculus, the IC50, lay at 0.176 µM. In addition, the inhibition in assay [1] turned out to be 47%.
As for `Cc1c(C=O)c2ccccc2n1CCN1CCOCC1`, in the assay listed under Mus musculus, inhibition was half-maximal at 0.656 µM (IC50). Further, the inhibition in assay [1] was 37%.
As to `COc1ccc(C(=O)c2c(C)n(CC[N+]3([O-])CCOCC3)c3ccccc23)cc1`, in the assay filed under Mus musculus, the IC50 was more than 10 µM. Moreover, the inhibition in assay [1] is -9%.
As for `Cc1c(C(=O)c2cccc3ccccc23)c2ccccc2n1CCN1CCNCC1`, the inhibition in assay [1] is -9%.
Turning to `COc1ccc(C(=O)c2c(C)n(CCN3CCCCC3)c3ccccc23)cc1`, in the assay listed under Mus musculus, 1.43 µM corresponded to half-maximal inhibition (IC50). Also, the inhibition in assay [1] was 34%.
With `Cc1c(C(=O)c2ccccc2O)c2ccccc2n1CCN1CCOCC1`, the inhibition in assay [1] was -2%.
Turning to `Cc1c(C(=O)c2cccc(F)c2)c2ccccc2n1CCN1CCOCC1`, the inhibition in assay [1] was determined as 38%.
Take `COc1ccc(C(=O)c2c(C)n(CCN3CCOCC3)c3ccc(OC)cc23)cc1`: the 50% inhibitory concentration (IC50) in the assay filed under Mus musculus was more than 10 µM. In assay [1], the inhibition stood at 14%.
The corresponding values for `Cc1c(C(=O)c2ccccc2F)c2ccccc2n1CCN1CCOCC1` are 1.94 µM and 15%.
On the same counts, the results for `COc1ccc(C(=O)c2c(C)n(CCN3CCOCC3)c3c(OC)cccc23)cc1` are 0.266 µM and 64%.
In turn, `COc1ccc(C(=O)c2c(C)n(CCN3CCOCC3)c3ccc(F)cc23)cc1` registered an IC50 in the assay listed under Mus musculus of 0.119 µM. Besides, the inhibition in assay [1] came out at 19%.
For the molecule `COc1ccc(C(=O)c2c(C)n(CCO)c3ccccc23)cc1`, the IC50 in the assay listed under Mus musculus is more than 10 µM. The inhibition in assay [1] is -6%.
As to `Cc1c(C(=O)c2ccc(C#N)cc2)c2ccccc2n1CCN1CCOCC1`, in the assay filed under Mus musculus, the IC50 was more than 10 µM. Moreover, the inhibition in assay [1] was -1%.
The corresponding values for `Cc1c(C(=O)c2ccc(Cl)cc2)c2ccccc2n1CCN1CCOCC1` are 0.564 µM and 62%.
On the same counts, the results for `Cc1c(C(=O)c2cccc3ccccc23)c2ccccc2n1CC(=O)O` are 9.75 µM and 21%.
`COc1ccc(C(=O)c2c(C)n(CCN3CCCC3)c3ccccc23)cc1` yielded an IC50 in the assay listed under Mus musculus of 0.241 µM. The inhibition in assay [1] was 7%.
The corresponding values for `Cc1ccccc1C(=O)c1c(C)n(CCN2CCOCC2)c2ccccc12` are 0.715 µM and 13%.
The corresponding values for `COc1ccc(C(=O)c2c(C)n(CCN3CCOCC3)c3ccc(C)cc23)cc1` are more than 10 µM and 7%.
On the same counts, the results for `O=C(c1ccc(Br)c2ccccc12)c1cn(CCN2CCOCC2)c2ccccc12` are 0.0055 µM and 98%.
For the molecule `CC(CN1CCOCC1)n1cc(C(=O)c2cccc3ccccc23)c2ccccc21` (racemic; form 2), the inhibition in assay [1] was found to be 94%.
In turn, `COc1ccc(C(=O)c2c(C)n(CCCN3CCOCC3)c3ccccc23)cc1` returned a 50% inhibitory concentration (IC50) in the assay listed under Mus musculus of 0.36 µM. In addition, in assay [1], the inhibition is -6%.
`Cc1cccc(C)c1C(=O)c1c(C)n(CCN2CCOCC2)c2ccccc12`: the IC50 in the assay listed under Mus musculus was determined as 1.57 µM. Further, the inhibition in assay [1] is -5%.
